Measured values taken from US20230257700A1, “FUNCTIONAL HUMAN CORNEAL ENDOTHELIAL CELLS AND APPLICATION THEREOF” (KYOTO PREFECTURAL PUBLIC UNIVERSITY CORPORATION, priority 2020, published 2023).

Assays:
[1] = tested on: cultured human corneal endothelial cells CT09; assay: effects of additives, lot CT09 P5 (photographs, FACS, ELISA); type: cell-based; details: CT09 P5, conditions 1 to 5, Day 34 FACS, PDGF-bb and IL-8 1st to 5th week
Excerpt: (§1) Lot CT09 P5 was used to assay the effects of additives to evaluate the product in a SB2-new culture method. First, using CT09 P4 (remaining cells for FBS lot assay), the culture supernatant was collected the day before the passage (Day 42), and then the CT09 P5 was passaged with ECD400 (181219), followed by culturing in Nancy medium (FBS #1652794, containing ascorbic acid) under conditions 1 to 5 shown in FIG. 23 (2 wells for each 6-well plate). From the 1st week to the 5th week, the culture supernatant was collected, one well was subjected to FACS measurement on Day 34 (190122), and the culture supernatant was measured for IL-8 and PDGF-bb by ELISA.

[2] = tested on: IL-8; assay: ELISA IL-8 in culture supernatant; type: cell-based, human
Excerpt: as §1
(§2) As to culture conditions, the Y addition timing is examined at P1 and P2 in #190719, and the Y addition timing is examined at P1 in #190802.
(§3) Using P4 of #190719, the culture supernatant was collected at 1 to 5 w to examine the difference in accordance with the presence or absence of the ROCK inhibitor. Donor information was as follows: #190719S/D, AEB-301, OSCN/ODCN, ECD=3448/3289, COD: Bleomycin Lung Toxicity 2/2 ChemoTreatments, D-P=11:28, D-C=8D.

[3] = tested on: miR34a-5p; assay: intracellular miR34a-5p expression by qRT-PCR; type: cell-based, human; details: with/without EGF, with/without Y27632
Excerpt: (§4) Y27632 was used as a ROCK inhibitor.
(§5) Culture conditions conform to Examples 1 and 2.
(§6) The results of miR184, miR34, miR378, and miR146 gene expression variations in the presence or absence of EGF and in the presence or absence of Y by qRT-PCR are shown in FIGS. 17 and 18.

[4] = tested on: PDGF-bb; assay: ELISA PDGF-bb in culture supernatant; type: cell-based, human; details: for PDGF-bb in culture supernatant (weekly): #190719 P1 and P2, #190318
Excerpt: as §1, §2, §3

[5] = tested on: human corneal endothelial cells (donor AEM-510); assay: adhesion enhancement at P0 with or without Y addition; type: cell-based
Procedure: Next, ROCK inhibitors were tested for adhesion enhancement. In order to investigate whether the enhancement of adhesion by the ROCK inhibitor is related to standard cell manufacture, cells cultured under the following conditions were compared and verified at P0 with or without Y addition.
AEM-510 (person), ECD ODCN: 3058, and OSCN: 3058 were used, which were stored at 4° C. on January 30th, corneal treatment was performed on January 31st at 10:00, OD collagenase treatment was started at 10:45, and OS collagenase treatment was started at 11:05. Thereafter, seeding was started at 14:45 and cultured with Y−, A (ascorbic acid)+for OD and Y+, A+ for OS. At 10:00 on February 4, the medium was replaced, and both eyes: Y+, A+ were photographed (phase contrast ×4, ×10).

[6] = tested on: cultured human corneal endothelial cells; assay: FACS cell surface CD antigens and phase-contrast morphology of cultured HCEC (standard cell ratio); type: cell-based
Procedure: Culture with 0+Y, SB2, EGF, Asc (ascorbic acid) ↓ P1 Culture with +Y, SB2, EGF, Asc ↓ P2 Culture in 4 ways with EGF(−), 0.5 ng/mL, 1 ng/mL, 5 ng/mL (+Y, SB2, Asc) ↓ Passage from each condition in P2 P3 Culture in 4 ways with EGF(−), 0.5 ng/mL, 1 ng/mL, 5 ng/mL (+Y, SB2, Asc) ↓ Passage from each condition in P3 P4 Culture in 4 ways with EGF(−), 0.5 ng/mL, 1 ng/mL, 5 ng/mL (+Y, SB2, Asc) *Trypsin (TrypLE, ThermoFisher) concentration ×10 at the time of detachment, seeding cell number ECD800 (In the above, P indicates the number of passages.)
P0 Culture two eyes collectively in 2 ways with EGF(−), 0.5 ng/mL (+Y, SB2, Asc) ↓ Passage from each condition in P0 P1 Culture in two ways with EGF(−), 0.5 ng/mL (+Y, SB2, Asc) ↓ Passage from each condition in P1 P2 Culture in two ways with EGF(−), 0.5 ng/mL (+Y, SB2, Asc) TrypLE concentration ×10 at the time of detachment, at seeding ECD800
as §2, §3
For FACS analysis, 16×10^4 cells (one type of antibody+negative control) were dispensed into Proteosave tubes and the rest were passaged. FACS required 8×10^4 cells per antibody type. Passages were seeded at an Endothelial Cell Density (ECD: cells/mm^2) of 400 (191001 time point) (24-well: 7.6×10^4 cells, 12-well: 15.2×10^4 cells, 6-well: 38×10^4 cells, T-25: 100×10^4 cells).
The FACS was started up, and an antibody solution (hereinafter light-shielded, on ice) was prepared as follows. antigen fluorescent dye Volume (μL)×sample type plus something extra (μL)
The cell suspension was centrifuged at 250×g (1,800 rpm) for 2 minutes at 4° C., the supernatant was removed using P-200, the concentration was adjusted to 4×10^6 cells/mL and suspended in FACS Buffer (+NaN3). When the suspension was less than 30 μL, it was suspended in 30 μL and 20 μL was used for the reaction and 10 μL for NC.
Twenty μL of the antibody solution and 20 μL of the suspension were mixed well by pipetting, and the tube was wrapped in aluminum to shield from light and rotated at 4° C. for 2 hours (up to 4 hours maximum) on a rotator. Centrifugation was performed at 250×g (1,800 rpm) for 2 minutes at 4° C., the supernatant was discarded, followed by washing with 100 μL of FACS Buffer (+NaN3). Centrifugation was performed at 250×g (1,800 rpm) for 2 minutes at 4° C., the supernatant was discarded, followed by suspending in 350 μL of FACS buffer (−NaN3), and transferring through a cell strainer to a 5-mL tube. NCs were suspended in FACS Buffer (−NaN3) to a total of 350 μL of the rest of the initial suspension, and transferred to a 5-mL tube through a cell strainer. During the FACS measurement, the sample was kept light-shielded and on ice, the FACS laser value and target cell range were determined, and a file was created (to follow: Open Book→Open Syringe→Green→Cytometer tab: Laser→Area scaling for HCEC label: FSC 0.5/Blue 0.75/Red 0.80). The NC was set to SIT and allowed to run briefly (Flow rate: set to medium, Acquire data 5 seconds→Remove sample from SIT and put on ice) to check the fluorescence parameter graph and target cell range. […]

[7] = tested on: miR184; assay: intracellular miR184 expression by qRT-PCR; type: cell-based, human; details: with/without EGF, with/without Y27632
Excerpt: as §4, §5, §6

[8] = tested on: IL-6, IL-8 and MIP-1b; assay: cytokine measurement (BioPlex) in culture supernatant; type: cell-based, human; details: #190318
[9] = tested on: cultured endothelial cells; assay: measurement of metabolites in culture supernatant (CE-TOFMS, CE-MS/MS); type: cell-based, human
Procedure: In this Example, differences between the metabolite properties of functional human corneal endothelial cells and the metabolite properties of non-intended cells were confirmed.
For measurement of metabolites in culture supernatant (CS), an 80 μL Milli-Q (Merck1 KGaA, Darmstadt, Germany) containing 20 μL of CS and internal standard solution 1 (H3304-1002; Human Metabolome Technologies, Inc., Yamagata, Japan), was thoroughly mixed. Cationic compounds were measured by CE time-of-flight mass spectrometry (CE-TOFMS) in positive mode, and anionic compounds were measured by CE tandem MS (CE-MS/MS) in positive and negative modes. Hierarchical cluster analysis (HCA) was performed using the proprietary software “PeakStat”. Differences in values were analyzed statistically using Student's t-test or one-way analysis of variance (ANOVA) with Bonferroni's post hoc test (GraphPadPrism 6.0, GraphPad software). A p-value of <0.05 was considered statistically significant.
The effect of adding a ROCK inhibitor was determined according to Example 3.

[10] = tested on: mitochondrial respiration (OXPHOS) of HCEC; assay: mitochondrial respiratory capacity of cHCEC; type: cell-based, human; details: HCEC passages 2-5
Excerpt: As used herein, “mitochondria dependent oxidative phosphorylation” is also called “mitochondria OXPHOS” and refers to a reaction of oxidative phosphorylation that depends on respiratory activity. As to the reaction associated with “mitochondria OXPHOS”, a extracellular flux analyzer, which analyzes the state of intracellular metabolism, can measure the oxygen consumption rate (OCR), which is an index of OXPHOS activity, the extracellular acidification rate (ECAR), which is an index of glycolytic activity.
Corneal endothelial cells (HCEC) were obtained from donor corneas provided by SightLife (Seattle, Wash., USA), and the HCEC were cultured according to a published protocol (Toda M, Ueno M, et al. Invest Ophthalmol Vis Sci. 2017; 58:2011) with some modifications. HCEC of passages 2-5 were used for all experiments. SPs containing CST were passaged at low cell density. The SPs of cHCEC were identified by cell surface markers (CD24, 44, 105, 166) using phase-contrast microscopy images and flow cytometry.

[11] = #190719 P1 and P2, ROCK inhibitor added 10 days after the start of culture
[12] = #190719 P4, ROCK inhibitor added at the start of the culture for 3 days

With `C[C@@H](N)[C@H]1CC[C@H](C(=O)Nc2ccncc2)CC1.Cl.Cl.O` (relative stereo) [Y27632, (R)-(+)-trans-(4-pyridyl)-4-(1-aminoethyl)-cyclohexanecarboxamide dehydrochloride monohydrate] the “desirable additive condition (overall effects of the additives)” value (“desirable additive condition” below) [1] was “addition of Y from Day 10”, the “IL-8 in culture supernatant” value [2, 11] was “lowest from differentiation to the maturation stage” and the “IL-8 in culture supernatant” value [2, 12] was “higher than the standard”. For the same molecule, the miR34a-5p expression level [3] was “increases with the addition of the ROCK inhibitor”, the “PDGF-bb in culture supernatant (weekly)” value [4] was “high PDGF levels and slightly low levels in the P1 growth phase” and the “PDGF-bb in culture supernatant (for each item)” value [4, 11] was “increased from differentiation to maturation”. For the same molecule, the “PDGF-bb in culture supernatant” value [4, 12] was “at a low level and does not satisfy the standard values”, the “PDGF-bb in culture supernatant” value ([4]; #190802) was “increased dependently on differentiation and induction by a ROCK inhibitor” and the “adhesion to the incubator after seeding” value ([5]; P0, Y+ vs Y−) was “promoted the adhesion to the incubator after seeding the cells”. The “difference between cultures on the 14th day” value ([5]; Y27632 added for the first time after the 4th day vs from seeding) was “no difference was observed on the 14th day of culture”, the “mature standard cells by FACS” value [6, 12] was “no mature standard cells were detected by FACS” and the “ratio of standard cells (FACS)” value ([6]; ROCK inhibitor added on the 10th day after the start of culture, #190719, #190802, #190318) was “higher ratio of standard cells in all of the three experiments”. The miR184 expression level [7] was “increases with the addition of the ROCK inhibitor”.

With `NC(=O)c1ccc(-c2nc(-c3ccc4c(c3)OCO4)c(-c3ccccn3)[nH]2)cc1` [SB4] the “desirable additive condition” value [1] was “addition of SB4”.

In the case of `C[S+]([O-])c1ccc(-c2nc(-c3ccncc3)c(-c3ccc(F)cc3)[nH]2)cc1` (stereo not drawn) [SB203580], the “desirable additive condition” value [1] is reported as “no addition of SB2 or the addition thereof only at the final stage of culture”, the “IL-8 in culture supernatant (weekly)” value ([2]; #190318) is reported as “varies almost depending on the presence or absence of SB2” and the “IL-8 in culture supernatant” value ([2]; #190802) is reported as “decreased dependently on a p38 MAPK inhibitor”. For the same molecule, the “PDGF-bb in culture supernatant (for each item)” value ([4]; #190318, SB2 not added) was “high PDGF levels at 3 w”, the “PDGF-bb in culture supernatant (weekly)” value [4] was “little relation to the presence or absence of SB203580” and the “IL-6, IL-8 and MIP-1b in culture supernatant (BioPlex)” value [8] was “dependent on the p38 MAPK inhibitor”.

“EGF: epidermal growth factor, a type of cell growth factor” was tested, and the “desirable additive condition” value [1] was “no addition of EGF”, the “Lactic Acid and L/P (lactic acid/pyruvic acid) ratio; anaerobic glycolytic activity” value [9] was “non-intended cell profile with high anaerobic glycolytic activity due to the addition of EGF” and the “metabolite profile of cultured endothelial cells” value ([9]; EGF added) was “showed a non-intended cell profile by adding EGF”. The “amount of branched chain amino acids (Ile, Leu) produced” value ([9]; amount of EGF added varied) was “decreased when the amount of EGF added was reduced”, the miR34a-5p expression level [3] was “increases with no EGF addition than with EGF addition” and the “ratio of corneal endothelial cells of the present disclosure (FACS)” value ([6]; EGF (−) or 0.5 ng/mL from primary culture, P0 to P2, donor #214) was “increases when EGF is not added”. For the same molecule, the “cell shape under microscopy and cell surface CD antigen trait” value ([6]; EGF (−), 0.5, 1, 5 ng/mL, passages P2 to P4, donor #202) was “no addition of EGF was desirable at any passage from P2 to P4”, the standard cell ratio ([6]; EGF addition, HCEC passages 2-5) was “lowers the standard cell ratio” and the miR184 expression level [7] was “increases with no EGF addition than with EGF addition”. For the same molecule, the “mitochondrial respiratory capacity and oxidative phosphorylation (OXPHOS)” value [10] was “reduces mitochondrial respiratory capacity and oxidative phosphorylation (OXPHOS)”.
